# Assay results taken from patent publication US20110166112A1, “METHOD FOR STIMULATING PLATELET PRODUCTION” (Eisai, Inc., priority 2009, published 2011).
# Test system: subjects with chronic ITP who completed 28 days of study treatment
# Assay: Phase 2 6-month rollover study of E5501: effectiveness (durable, transient, overall platelet response, maintenance, steroid use, upward dose titration)
# Assay type: in vivo, human
# Settings: for Decreased use of concomitant steroid medication by ≧50%, No / Decreased use of concomitant steroid medication by ≧50%, Yes / Permanently discontinued steroid use, No / Permanently discontinued steroid use, Yes: 6-month rollover, FAS subjects taking steroids at baseline; for subjects who required upward dose titration / durable response rate: 6-month treatment period; for Transient Platelet Response No, %: 'no' includes durable responders
# Method: This study was a multicenter, parallel-group, rollover study of E5501 in subjects with chronic ITP who were enrolled in and completed 28 days' of study treatment. All subjects who completed the previous study and otherwise met the eligibility criteria for this rollover protocol were enrolled.
# Subjects who rolled over from the previous study were treated for an additional 6 months after completing previous study.
# Initial dose: Subjects who met the efficacy response in the previous study continued to receive their previous blinded dose at entry into this study.
# Dose titration was performed in an open label fashion in 10 mg increments as follows: • Nonresponders, who received initial doses of open-label E5501 10 mg in the previous study, could have their dose increased in 10 mg increments every 14 days to a maximum of 40 mg/day in the absence of platelet response.
# Subjects were also permitted to reduce their dose of ITP-directed concomitant therapy (e.g., steroids). The overall goal of any dose modification was to maintain the subject's peripheral platelet count above 50,000/mm^3 and to decrease the need for ITP-directed concomitant medications (if applicable). During any dose modification of study drug or ITP-directed concomitant medications, platelet counts were collected every week. After platelet counts stabilized, platelet count collection reverted to a biweekly schedule.
# Assessments: Study subjects were evaluated for safety and efficacy (including platelet count) on day 1 and then biweekly while receiving treatment.
# Two primary analysis populations were used to summarize safety and effectiveness: • Safety population: all subjects who received at least 1 dose of study drug and had at least 1 post-treatment safety assessment in either the previous or this study. All safety analyses were performed using this population. • Full Analysis Set (FAS): all subjects who participated in both studies and who had at least one post-treatment effectiveness assessment in this study. All efficacy analyses were performed using this population.
# Secondary Endpoints: The secondary endpoints were markers of effectiveness, including: • 1. Changes in platelet count from baselines of the previous study and of this study by study visit; and • 2. Durable platelet response, defined as subjects who had at least 3 platelet count assessments in the last 14 weeks of the 24-week treatment period, and whose platelet count was at a response level for at least 75% of the time in the last 14 weeks during the 24-week treatment period, with no rescue medication used during the 24-week treatment period. Platelet response level was defined as ≧50,000/mm^3 for subjects whose baseline platelet count was <30,000/mm^3 in the previous study or an increase in baseline platelet count of ≧20,000/mm^3 for subjects receiving steroids whose baseline platelet count in the previous study was ≧30,000/mm^3 but <50,000/mm^3; • 3. Transient platelet response, defined as achievement of a response level for any 4 consecutive weeks during the 24-week treatment period without durable platelet response in the absence of any rescue medication; • 4. Overall platelet response (durable platelet response plus transient platelet response); • 5. Maintenance of platelet response, defined as subjects who were responders in the previous study (e.g., responders on day 28 of the previous study) who achieved a durable response in this study and had no upward dose titration of E5501 during this study; • 6. Permanent discontinuation of steroid use, defined as subjects who used steroid medication within the 2-week period before their first dose of study drug in this study, and for whom concomitant steroid medication was discontinued at least 8 weeks before the end of the treatment period; • 7. Reduction of steroid use by at least 50%. […]
# [1] = FAS, 501-CL-003 Nonresponders (N = 28)
# [2] = FAS, 501-CL-003 Responders (N = 25)
# [3] = FAS, <3 Lines of Prior Therapy, E5501 Total, N assessed 18
# [4] = FAS, <3 Lines of Prior Therapy, Non-Responders, N assessed 6
# [5] = FAS, <3 Lines of Prior Therapy, Responders, N assessed 12
# [6] = FAS, Baseline PC >15K/mm^3, E5501 Total, N assessed 38
# [7] = FAS, Baseline PC >15K/mm^3, Non-Responders, N assessed 19
compound,measurement,setting,value
"O=C(Nc1nc(-c2cc(Cl)cs2)c(N2CCN(C3CCCCC3)CC2)s1)c1cnc(N2CCC(C(=O)O)CC2)c(Cl)c1 [E5501, 1-(3-chloro-5-{[4-(4-chlorothiophen-2-yl)-5-(4-cyclohexylpiperazin-1-yl)thiazol-2-yl]carbamoyl}pyridine-2-yl)piperidine-4-carboxylic acid]","Decreased use of concomitant steroid medication by ≧50%, No",E5501 Total,11 (45.8) n (%)
same,"Decreased use of concomitant steroid medication by ≧50%, Yes",E5501 Total,13 (54.2) n (%)
same,"Permanently discontinued steroid use, No",E5501 Total,16 (66.7) n (%)
same,"Permanently discontinued steroid use, Yes",E5501 Total,8 (33.3) n (%)
same,"Decreased use of concomitant steroid medication by ≧50%, No",Nonresponders,6 (50.0) n (%)
same,"Decreased use of concomitant steroid medication by ≧50%, Yes",Nonresponders,6 (50.0) n (%)
same,"Permanently discontinued steroid use, No",Nonresponders,8 (66.7) n (%)
same,"Permanently discontinued steroid use, Yes",Nonresponders,4 (33.3) n (%)
same,"Decreased use of concomitant steroid medication by ≧50%, No",Responders,5 (41.7) n (%)
same,"Decreased use of concomitant steroid medication by ≧50%, Yes",Responders,7 (58.3) n (%)
same,"Permanently discontinued steroid use, No",Responders,8 (66.7) n (%)
same,"Permanently discontinued steroid use, Yes",Responders,4 (33.3) n (%)
same,subjects who required upward dose titration,25 responders,20%
same,subjects who required upward dose titration,28 non-responders,75%
same,durable response rate,"FAS, all subjects",52.8%
same,durable response rate,"FAS, non-responders in previous study",35.7%
same,durable response rate,"FAS, responders in previous study",72.0%
same,subjects who achieved an overall platelet response after the titration,13 subjects who required and did receive a dose titration,76.9%
same,median platelet counts maintained throughout the study,FAS,"above 50,000 /mm^3"
same,"Upward titration required and implemented, % of subjects","FAS, 501-CL-003 Nonresponders",(47.6) %
same,"Upward titration required and implemented, n of subjects","FAS, 501-CL-003 Nonresponders",10/21
same,"Upward titration required and implemented; subject achieved overall response, % of subjects","FAS, 501-CL-003 Nonresponders",(70.0) %
same,"Upward titration required and implemented; subject achieved overall response, n of subjects","FAS, 501-CL-003 Nonresponders",7/10
same,"Upward titration required, % of subjects",[1],(75.0) %
same,"Upward titration required, n of subjects",[1],21
same,"Upward titration required and implemented, % of subjects","FAS, 501-CL-003 Responders",(60.0) %
same,"Upward titration required and implemented, n of subjects","FAS, 501-CL-003 Responders",3/5
same,"Upward titration required and implemented; subject achieved overall response, % of subjects","FAS, 501-CL-003 Responders",(100.0) %
same,"Upward titration required and implemented; subject achieved overall response, n of subjects","FAS, 501-CL-003 Responders",3/3
same,"Upward titration required, % of subjects",[2],(20.0) %
same,"Upward titration required, n of subjects",[2],5
same,"Durable Platelet Response No, %","FAS, E5501 Total (N=53)",(47.2) %
same,"Durable Platelet Response Yes, %","FAS, E5501 Total (N=53)",(52.8) %
same,"Transient Platelet Response Yes, %","FAS, E5501 Total (N=53)",(22.6) %
same,"With Overall Response No, %","FAS, E5501 Total (N=53)",(24.5) %
same,"With Overall Response Yes, %","FAS, E5501 Total (N=53)",(75.5) %
same,"Transient Platelet Response No, %","FAS, E5501 Total (N=53)",(77.4) %
same,"Durable Platelet Response No, %","FAS, Non-Responders (N=28)",(64.3) %
same,"Durable Platelet Response Yes, %","FAS, Non-Responders (N=28)",(35.7) %
same,"Transient Platelet Response Yes, %","FAS, Non-Responders (N=28)",(28.6) %
same,"With Overall Response No, %","FAS, Non-Responders (N=28)",(35.7) %
same,"With Overall Response Yes, %","FAS, Non-Responders (N=28)",(64.3) %
same,"Transient Platelet Response No, %","FAS, Non-Responders (N=28)",(71.4) %
same,"Durable Platelet Response No, %","FAS, Responders (N=25)",(28.0) %
same,"Durable Platelet Response Yes, %","FAS, Responders (N=25)",(72.0) %
same,"Transient Platelet Response Yes, %","FAS, Responders (N=25)",(16.0) %
same,"With Overall Response No, %","FAS, Responders (N=25)",(12.0) %
same,"With Overall Response Yes, %","FAS, Responders (N=25)",(88.0) %
same,"Transient Platelet Response No, %","FAS, Responders (N=25)",(84.0) %
same,"Upward titration required and implemented, % of subjects","FAS, Total",(50.0) %
same,"Upward titration required and implemented, n of subjects","FAS, Total",13/26
same,"Upward titration required and implemented; subject achieved overall response, % of subjects","FAS, Total",(76.9) %
same,"Upward titration required and implemented; subject achieved overall response, n of subjects","FAS, Total",10/13
same,"Upward titration required, % of subjects","FAS, Total (N = 53)",(49.0) %
same,"Upward titration required, n of subjects","FAS, Total (N = 53)",26
same,"Durable Platelet Response, n (%) with response",[3],12 (66.7) n (%)
same,"Overall Platelet Response, n (%) with response",[3],15 (83.3) n (%)
same,"Durable Platelet Response, n (%) with response",[4],3 (50.0) n (%)
same,"Overall Platelet Response, n (%) with response",[4],4 (66.7) n (%)
same,"Durable Platelet Response, n (%) with response",[5],9 (75.0) n (%)
same,"Overall Platelet Response, n (%) with response",[5],11 (91.7) n (%)
same,"Durable Platelet Response, n (%) with response",[6],24 (63.2) n (%)
same,"Overall Platelet Response, n (%) with response",[6],33 (86.8) n (%)
same,"Durable Platelet Response, n (%) with response",[7],9 (47.4) n (%)
same,"Overall Platelet Response, n (%) with response",[7],15 (78.9) n (%)
